Columns and labels:
CHL-GLP1R cells = assay: Binding and internalisation assay of 111In-labelled exendin variants on GLP1R-positive cells; format: cell-based, Chinese hamster
in vivo = assay: in vivo; set-up: species or system BALB/c nude mice; conditions: BALB/c nude, mouse, iv, 20 pmol/mouse, total radioactivity
Description: Mice were injected subcutaneously on the right flank with 0.2 mL of a cell suspension containing 15,000,000 INS-1 cells/mL in RPMI (3,000,000 cells/mouse). When the tumours were 2–5 mm in diameter, mice were randomly divided into groups and the experiment was performed. All mice were intravenously injected with 20 pmol/mouse (0.37 MBq/mouse) of the corresponding radiolabelled exendin variant in approximately 200 μL PBS/0.5% BSA. 12 mice received [^111In]In-DTPA-exendin-4 (referred to as exendin-4), 12 mice received [^111In]In-DTPA-exendin-4-Pen (referred to as exendin-4-Pen), 11 mice received [^111In]In-DTPA-exendin(9-39) (referred to as exendin(9-39) and 11 mice received [^111In]In-DTPA-exendin(9-39)-Pen (referred to as exendin(9-39)-Pen). To determine non-specific uptake, an excess of unlabelled peptide was injected (blocking group). A 100-fold excess of unlabelled DTPA-exendin-4 or DTPA-exendin(9-39) was co-injected (5 or 6 mice per group). Blocking groups were only included at the 4 h timepoint, to reduce the number of mice used as a control. After 1 h and 4 h after injection, mice were euthanized by CO2/O2 asphyxiation. Blood, tumours and relevant tissues (muscle, heart, lung, spleen, pancreas, kidney, liver, stomach, duodenum and colon) of all animals were dissected, weighed and measured in a gamma-counter (2480 Wizard 3”, LKB/Wallace, Perkin-Elmer, Waltham, MA, USA). The percentage injected dose per gram tissue (% ID/g) was determined for each tissue, based on the cpm measured for diluted injection mixtures (standards). For the statistical analysis, the data were log transformed to correct for differences in the intra-group spread and ensure a normal distribution. The difference in tumour uptake between the four compounds was evaluated separately for each timepoint, with a one-way ANOVA and Tukey’s post hoc test. We accepted a type I alpha error of 0.05. The number of animals per group was selected assuming an SD of 10% of the mean, to reach a statistical power of 80% (beta type error = 0.2).

## CC[C@H](C)[C@H](NC(=O)[C@H](Cc1ccccc1)NC(=O)[C@H](CC(C)C)NC(=O)[C@H](CCCNC(=N)N)NC(=O)[C@@H](NC(=O)[C@H](C)NC(=O)[C@H](CCC(=O)O)NC(=O)[C@H](CCC(=O)O)NC(=O)[C@H](CCC(=O)O)NC(=O)[C@H](CCSC)NC(=O)[C@H](CCC(N)=O)NC(=O)[C@H](CCCCN)NC(=O)[C@H](CO)NC(=O)[C@H](CC(C)C)NC(=O)[C@@H](N)CC(=O)O)C(C)C)C(=O)N[C@@H](CCC(=O)O)C(=O)N[C@@H](Cc1c[nH]c2ccccc12)C(=O)N[C@@H](CC(C)C)C(=O)N[C@@H](CCCCN)C(=O)N[C@@H](CC(N)=O)C(=O)NCC(=O)NCC(=O)N1CCC[C@H]1C(=O)N[C@@H](CO)C(=O)N[C@@H](CO)C(=O)NCC(=O)N[C@@H](C)C(=O)N1CCC[C@H]1C(=O)N1CCC[C@H]1C(=O)N1CCC[C@H]1C(=O)N[C@@H](CO)C(=O)N[C@@H](CCCNC(=N)N)C(=O)N[C@@H](CCC(N)=O)C(=O)N[C@H](C(=O)N[C@@H](CCCCN)C(=O)N[C@H](C(=O)N[C@@H](Cc1c[nH]c2ccccc12)C(=O)N[C@@H](Cc1ccccc1)C(=O)N[C@@H](CCC(N)=O)C(=O)N[C@@H](CC(N)=O)C(=O)N[C@@H](CCCNC(=N)N)C(=O)N[C@@H](CCCNC(=N)N)C(=O)N[C@@H](CCSC)C(=O)N[C@@H](CCCCN)C(=O)N[C@@H](Cc1c[nH]c2ccccc12)C(=O)N[C@@H](CCCCN)C(=O)N[C@@H](CCCCNC(=O)CN(CCN(CCN(CC(=O)O)CC(=O)O)CC(=O)O)CC(=O)O)C(N)=O)[C@@H](C)CC)[C@@H](C)CC [[111In]In-exendin(9-39)-Pen, metal not drawn]
CHL-GLP1R cells; 30 minutes and 4 hours incubation at 37 °C, approx. 50 pM, acid-releasable fraction
  binding to CHL-GLP1R cells compared with the unconjugated peptide: increased binding
CHL-GLP1R cells; CHL-GLP1R cells, 4 hours incubation at 37 °C, approx. 50 pM 111In-labelled peptide in RPMI-1640 with 0.5% BSA, acid wash then NaOH lysis, γ-counter, mean ± SD of three wells
  internalisation (percentage of the total activity added): 17.7 ± 0.5%
In vivo; pancreatic uptake
  tissue uptake at 1 h: 2.2 ± 0.3 %ID/g
  tissue uptake at 4 h: 1.2 ± 0.2 %ID/g
In vivo; tumour accumulation
  tissue uptake at 1 h: 8.6 ± 2.2 %ID/g
  tissue uptake at 4 h: 6.6 ± 1.2 %ID/g

From article PMC9931918, “Conjugation to a cell-penetrating peptide drives the tumour accumulation of the GLP1R antagonist exendin(9-39)” (European Journal of Nuclear Medicine and Molecular Imaging, 2022)
